The values below come from patent US9376700B2, “Methods of modifying N-termini of a peptide or protein using transferases” (The Trustees of the University of Pennsylvania, priority 2012, dated 2016).

What all share (format): biochemical
Test [1] has as its target T1, E. coli aminoacyl transferase (AaT) (Escherichia coli, UniProt P0A8P1). The test can be described thus: LysAlaAcm ligation assay: AaT-catalyzed transfer from aminoacyl adenosine donor to LysAlaAcm, HPLC at 325 nm. Further details: made in house; host or cells: E. coli BL21-Gold (DE3), plasmid pEG6, Ni-NTA purified. Conditions: for Ligated Product Yield (%): 4 h; for Transfer to LysAlaAcm by AaT (in words): reactions analyzed after 4 h. On the procedure:
Each ligation reaction, 125 μL total volume, contained the following reagents: aminoacyl adenosine donor (1 mM), recombinant His10-tagged E. coli aminoacyl transferase (2.26 μM), and LysAlaAcm (100 μM) in the AaT Ligation Buffer (50 mM HEPES pH 8.0, 150 mm KCl, 10 mM MgCl2). The reaction mixtures were incubated at 37° C. for four hours and quenched with 1% acetic acid. The proteins were extracted from the reactions via acetone precipitation. The reactions were precipitated using 4× reaction volume of acetone and cooled at −20° C. for 1 h. Next, the reactions were centrifuged at 13,200 rpm at 4° C. for 20 min to separate the reaction from precipitated protein. The supernatant was transferred to fresh 1.5 mL centrifuge tubes and allowed for acetone evaporation overnight at room temperature. After acetone evaporation, the supernatant was dried in a Speedvac (Savant, Thermo Scientific, Fisher Inc.) for 30 min to remove residual acetone. The resulting reaction volume was dissolved up to 1.2 mL using Milli-Q water and analyzed by HPLC (gradient below) to determine ligation yield by integration of separated peak intensities monitored at 325 nm. Collected HPLC fractions were characterized through MALDI MS analysis. […] Reactions using Phe-pdCpA as donor were carried out in an identical fashion (Ellman, et al., 1991, Methods Enzymol. 202:301-336).
All HPLC analyses of LysAlaAcm ligations were monitored on an Agilent HPLC using a Waters C18 column (Milford, Mass.).
All HPLC analyses of LysAlaAcm ligations were monitored as described elsewhere herein (Gradient 1).
(§1) The extent of transfer was evaluated by HPLC analysis of reactions with adenosyl donor, AaT or BpT, and an aminocoumarin-labeled reporter peptide (for AaT, LysAlaAcm was used as previously described by Tirrell and co-workers; for BpT, AspAlaAcm was used in an analogous fashion) (Connor et al., 2008, ChemBioChem 9:366-369). Monitoring LysAlaAcm or AspAlaAcm acylation in crude reaction mixtures using absorbance at 325 nm conveniently eliminates background due to other proteins and nucleic acids, although some non-natural amino acids such as naphthylalanine (Nap) and methoxycoumarinylalanine (Mcm) also absorb in this range.
To evaluate substrate scope, reactions were analyzed after 4 h, when transfer should be complete for the fully enzymatic reaction with Phe tRNA synthetase (Connor et al., 2008, ChemBioChem 9:366-369).

The test system of a further test is V. vulnificus BpT. The test can be described thus: AspAlaAcm ligation assay: BpT-catalyzed transfer from adenosyl donor to AspAlaAcm. Particulars: single addition of donor, 100 μM AspAlaAcm, 2.26 μM BpT, standard BpT-catalyzed transfer conditions. On the procedure: Ligation test reactions with V. vulnificus Bpt were conducted in a manner identical to the AaT LysAlaAcm ligation assay with the following exceptions, 2.26 μM BpT was used rather than 2.26 μM AaT, 100 μM AspAlaAcm was used rather than 100 μM LysAlaAcm, and BpT Ligation Buffer (50 mM HEPES, pH 8, 150 mM KO, 10 mM MgCl2) was used rather than AaT Ligation Buffer.
as §1

Test [2] has as its target T1, E. coli aminoacyl transferase (AaT). The test can be described thus: A/AMP/ATP/pdCpA inhibition studies of ligation with Phe donor 4a. Details: made in house; host or cells: E. coli BL21-Gold (DE3), plasmid pEG6, Ni-NTA purified. Conditions: tested at 1 mM, 2.5 mM and 5 mM with Phe donor 4a. On the procedure:
Each ligation reaction was performed as described elsewhere herein.
To better understand limitations on the yield from AaT reactions, the possibilities of inhibition by hydrolyzed substrate or aminoacylated product were assessed. Since the acyl adenosine donor substrate is not regenerated during the reaction (unlike the aaRS/tRNA/AaT reaction), it was hypothesized that the adenosine byproduct might inhibit further acylation by binding to AaT. To investigate this possibility, adenosine was added to the reaction at varying concentrations and monitored the reaction timecourse by fluorescence spectroscopy and by HPLC.

The mark [3] stands for this setting: single addition of 1 mM donor, 100 μM LysAlaAcm, 2.26 μM AaT, 37° C., no additive.

T1 sequence (P0A8P1 whole entry): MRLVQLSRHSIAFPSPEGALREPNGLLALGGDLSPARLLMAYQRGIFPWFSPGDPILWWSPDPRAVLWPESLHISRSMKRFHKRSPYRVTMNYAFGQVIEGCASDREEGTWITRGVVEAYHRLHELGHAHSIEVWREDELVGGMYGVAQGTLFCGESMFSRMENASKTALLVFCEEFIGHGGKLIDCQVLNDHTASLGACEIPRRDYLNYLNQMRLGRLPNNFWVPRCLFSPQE

For the compound `CSSC[C@H](N)C(=O)O[C@@H]1[C@H](O)[C@@H](CO)O[C@H]1n1cnc2c(N)ncnc21` [4k, (R)-(2R,3R,4R,5R)-2-(6-amino-9H-purin-9-yl)-4-hydroxy-5-(hydroxymethyl)tetrahydrofuran-3-yl 2-amino-3-(methyldisulfanyl)propanoate], the “Ligated Product Yield (%)” value in test [1] (setting [3]) is on record as 20.1%.

Regarding `CN[C@@H](Cc1ccccc1)C(=O)O[C@@H]1[C@H](O)[C@@H](CO)O[C@H]1n1cnc2c(N)ncnc21` [4e, (S)-(2R,3R,4R,5R)-2-(6-amino-9H-purin-9-yl)-4-hydroxy-5-(hydroxymethyl)tetrahydrofuran-3-yl 2-(methylamino)-3-phenylpropanoate], in test [1], the “Transfer to LysAlaAcm by AaT (in words)” value is reported as “transferred, albeit with low yield”. The “Ligated Product Yield (%)” value in test [1] (setting [3]) came out at 0.6 ± 0.1%.

As to `CC(C)C[C@H](N)C(=O)O[C@@H]1[C@H](O)[C@@H](CO)O[C@H]1n1cnc2c(N)ncnc21` [4b, (S)-(2R,3R,4R,5R)-2-(6-amino-9H-purin-9-yl)-4-hydroxy-5-(hydroxymethyl)tetrahydrofuran-3-yl 2-amino-4-methylpentanoate], the “Ligated Product Yield (%)” value turned out to be 5% in the test with V. vulnificus BpT and 80.4 ± 0.9% in test [1] (setting [3]). Also, in test [1], the “Transfer to LysAlaAcm by AaT (in words)” value was “transferred efficiently”.

For `[N-]=[N+]=N[C@@H](Cc1ccccc1)C(=O)O[C@@H]1[C@H](O)[C@@H](CO)O[C@H]1n1cnc2c(N)ncnc21` [4g, (S)-(2R,3R,4R,5R)-2-(6-amino-9H-purin-9-yl)-4-hydroxy-5-(hydroxymethyl)tetrahydrofuran-3-yl 2-azido-3-phenylpropanoate], the “Transfer to LysAlaAcm by AaT (in words)” value in test [1] is listed as “poor substrates”. In addition, in test [1] (setting [3]), the “Ligated Product Yield (%)” value was 5g not observed^c.

Take `CC(C)SSC[C@H](N)C(=O)O[C@@H]1[C@H](O)[C@@H](CO)O[C@H]1n1cnc2c(N)ncnc21` [4l, (R)-(2R,3R,4R,5R)-2-(6-amino-9H-purin-9-yl)-4-hydroxy-5-(hydroxymethyl)tetrahydrofuran-3-yl 2-amino-3-(isopropyldisulfanyl)propanoate]: the “Ligated Product Yield (%)” value turned out to be 20% in the test with V. vulnificus BpT and 42.3% in test [1] (setting [3]).

On to `CSSCC[C@H](N)C(=O)O[C@@H]1[C@H](O)[C@@H](CO)O[C@H]1n1cnc2c(N)ncnc21` [4n, (S)-(2R,3R,4R,5R)-2-(6-amino-9H-purin-9-yl)-4-hydroxy-5-(hydroxymethyl)tetrahydrofuran-3-yl 2-amino-4-(methyldisulfanyl)butanoate], for which, in test [1] (setting [3]), the “Ligated Product Yield (%)” value was found to be 27.8%.

For `COc1ccc2c(C[C@H](N)C(=O)O[C@@H]3[C@H](O)[C@@H](CO)O[C@H]3n3cnc4c(N)ncnc43)cc(=O)oc2c1` [4h, (S)-(2R,3R,4R,5R)-2-(6-amino-9H-purin-9-yl)-4-hydroxy-5-(hydroxymethyl)tetrahydrofuran-3-yl 2-amino-3-(7-methoxy-2-oxo-2H-chromen-4-yl)propanoate], the “Transfer to LysAlaAcm by AaT (in words)” value in test [1] is reported as “too large”. In test [1] (setting [3]), the “Ligated Product Yield (%)” value is 5h not observed.

Take `CC(=O)N[C@@H](Cc1ccccc1)C(=O)O[C@@H]1[C@H](O)[C@@H](CO)O[C@H]1n1cnc2c(N)ncnc21` [4f, (S)-(2R,3R,4R,5R)-2-(6-amino-9H-purin-9-yl)-4-hydroxy-5-(hydroxymethyl)tetrahydrofuran-3-yl 2-acetamido-3-phenylpropanoate]: in test [1], the “Transfer to LysAlaAcm by AaT (in words)” value is “poor substrates”. In test [1] (setting [3]), the “Ligated Product Yield (%)” value came out at 5f not observed.

In the case of `CSCC[C@H](N)C(=O)O[C@@H]1[C@H](O)[C@@H](CO)O[C@H]1n1cnc2c(N)ncnc21` [4j, (S)-(2R,3R,4R,5R)-2-(6-amino-9H-purin-9-yl)-4-hydroxy-5-(hydroxymethyl)tetrahydrofuran-3-yl 2-amino-4-(methylthio)butanoate], in test [1] (setting [3]), the “Ligated Product Yield (%)” value turned out to be 21.9%.

For PheLysAlaAcm, the “Product inhibition of NapLysAlaAcm (5d) production from Nap-A (4d)” value in test [1] (100 μM (1 equiv) added, standard 4 h transfer assay) is reported as “did not significantly inhibit”.

`Nc1ncnc2c1ncn2[C@@H]1O[C@H](CO)[C@@H](O)[C@H]1OC(=O)[C@@H](N)Cc1ccc(C(=O)c2ccccc2)cc1` [4i, (S)-(2R,3R,4R,5R)-2-(6-amino-9H-purin-9-yl)-4-hydroxy-5-(hydroxymethyl)tetrahydrofuran-3-yl 2-amino-3-(4-benzoylphenyl)propanoate]: the “Transfer to LysAlaAcm by AaT (in words)” value in test [1] was “poor substrate”. Besides, the “Ligated Product Yield (%)” value in test [1] (setting [3]) is 9.2 ± 0.3%.

For `Nc1ncnc2c1ncn2[C@@H]1O[C@H](COP(=O)(O)OP(=O)(O)OP(=O)(O)O)[C@@H](O)[C@H]1O` [ATP, adenosine triphosphate], the “Inhibition of the reaction, comparison of adenosine compounds” value in test [2] is “inhibited the reaction”.

Consider `Nc1ncnc2c1ncn2[C@@H]1O[C@H](CO)[C@@H](O)[C@H]1OC(=O)[C@@H](N)Cc1ccc2ccccc2c1` [4d, (S)-(2R,3R,4R,5R)-2-(6-amino-9H-purin-9-yl)-4-hydroxy-5-(hydroxymethyl)tetrahydrofuran-3-yl 2-amino-3-(naphthalen-2-yl)propanoate], for which the “Ligated Product Yield (%)” value was found to be 95.4 ± 0.4% in test [1] (setting [3]) and 93.8 ± 0.3% in test [1] (single addition of donor, additive 100 μM PheLysAlaAcm).
